The solubility is the dissolved amount per volume that the medium holds.

≈ marks a conversion by molar mass, not a printed value. Like-named read-outs stand apart in the source and are kept apart here.

Here are results for one compound from patent publication US11096910B2, “Metabolically robust analogs of CYP-eicosanoids for the treatment of cardiac disease” (OMEICOS THERAPEUTICS GMBH, priority 2015, dated 2021).

Data set [1] concerns spontaneously beating neonatal rat cardiomyocytes (NRCMs). Description: Spontaneous beating rate of neonatal rat cardiomyocytes (anti-arrhythmic cell model). The class given is cell-based. Particulars: 20 nM or 30 nM; comparison between analogs. As for the experimental part: The compounds include analogues being part of the invention (Comp-01 to Comp-05), which were synthesized as described in example 1, and additional related compounds (Comp-06 to Comp-13). A 1000-fold stock solutions in ethanol of the test compounds was prepared before use.
In order to measure the biological activities of metabolically robust analogs of CYP-eicosanoids an established cell model was used (Kang, J. X. et al., Proc Natl Acad Sci USA, 1994. 91(21): p. 9886-90). The spontaneously beating neonatal rat cardiomyocytes (NRCMs) are a model system to investigate anti-arrhythmic effects of test-compounds. […]
Isolation and cultivation of NRCMs were performed as described previously (Wallukat, G et al., J Clin Invest. 1999; 103: 945-952; Falck, J R et al., J Med Chem. 2011 Jun. 23; 54(12):4109-18). […] After four hours of incubation cells were adopted for 10 min to 31° C. and beating was recorded using an inverted microscope (Leica DM IRB) equipped with a CCD camera and coupled to an IonOptix (software: IonWizard6, IonOptix). To determine the basal rate, 6 to 8 individual clusters were selected and the number of contractions was counted for 15 sec. After that, the compound to be tested was added to the culture and the beating rate of the same clusters was monitored 5 min later again. […]

For data set [2], the target named is T1, human soluble expoxide hydrolase (sEH) (Homo sapiens, UniProt P34913).
T1 construct: purchased Cayman Chemicals
T1 sequence (P34913 1-555): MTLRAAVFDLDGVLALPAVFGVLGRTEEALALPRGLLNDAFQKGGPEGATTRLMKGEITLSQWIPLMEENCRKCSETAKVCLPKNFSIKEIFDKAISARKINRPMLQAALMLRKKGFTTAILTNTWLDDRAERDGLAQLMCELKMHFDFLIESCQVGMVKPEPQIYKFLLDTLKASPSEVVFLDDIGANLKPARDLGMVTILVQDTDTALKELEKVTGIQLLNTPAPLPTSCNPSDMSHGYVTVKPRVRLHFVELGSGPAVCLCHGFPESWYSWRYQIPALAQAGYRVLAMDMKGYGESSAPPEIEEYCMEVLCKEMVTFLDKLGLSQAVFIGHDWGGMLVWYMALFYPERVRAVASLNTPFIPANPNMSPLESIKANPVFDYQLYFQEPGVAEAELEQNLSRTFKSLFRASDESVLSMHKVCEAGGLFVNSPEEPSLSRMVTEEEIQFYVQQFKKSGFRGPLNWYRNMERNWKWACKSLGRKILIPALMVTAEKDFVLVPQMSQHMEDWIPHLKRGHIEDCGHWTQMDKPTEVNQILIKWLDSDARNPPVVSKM
The experiment in a line: In vitro inhibition of recombinant human soluble epoxide hydrolase. The format is biochemical. The following applies: 10 μM compound, 50 μM 14,15-EET substrate, vs vehicle control.
Experimental: A selection of compounds was tested for the ability to inhibit human soluble expoxide hydrolase (sEH). […] Briefly, the assay was performed at 37° C. for 20 min in a final volume of 100 μL potassium phosphate buffer (0.1 M, pH 7.2) containing 50 μM 14,15-EET as substrate. The reactions were started by adding enzyme (107.5 ng per reaction, 12.06 U/ml activity, Cayman Chemicals) and terminated with 300 μl ethyl acetate. […] Metabolically robust analogs shown in FIG. 5 were tested at final concentration of 10 μM for potency of sEH-inhibition compared to vehicle control (1% DMSO), n=2-4.

A short description of another data set: Aqueous solubility. The format is physicochemical. Particulars: for solubility at 24 h: deionised water, 37 °C, pH 5.9, water, thermodynamic from solid, pH 5.90, 24 hours agitation. As for the experimental part: Known amounts of the compounds were suspended by agitation for 24 hours. The filtrates were isolated and content of the appropriate compounds was determined by HPLC analysis.

Data set [3] has as its system mouse neonatal primary cardiomyocyte culture. Description: Oxygen-glucose deprivation/reoxygenation injury in primary cardiomyocytes. The format is cell-based. The following applies: for amelioration of loss of cell number: Hoechst 33342 staining. On the procedure: In vitro ischemic injury was induced in mouse neonatal primary cardiomyocyte culture by oxygen-glucose deprivation for 18 hours and a 24 hours reoxygenation period in a humidified incubator with 5% CO2/95% air. Cardiomyocytes were incubated with the test compounds during 4 hours prior to the oxygen glucose depriviation (OGD) induction. The test compounds were also present during the OGD insult and during the 24 h-reoxygenation period. After the reoxygenation period, cell number was assessed by Hoechst 33342 staining, apoptosis was measured by determining caspase 3/7 activation, and cell membrane integrity or necrosis was measured as LDH release.
Data were expressed as mean±SD of three separate wells and individual comparisons were made with Student's t-test (SigmaPlot 9.0 program). The results were normalized to the normoxia-treated cells. Statistical significance (*) p<0.05 as compared to normoxia/DMSO-treated cells and (§) hypoxia/DMSO treated cells. Results

For `CNC(=O)C(=O)NCCCC/C=C\CCCCCCCOCC(=O)O` [Comp-02, 2-((13-(2-(methylamino)-2-oxoacetamido)tridec-8(Z)-en-1-yl)oxy)acetic acid], in data set [1], the “negative chronotropic effect on NRCMs, in words” value was “equal potency”. In addition, the “inhibition of human sEH” value in data set [2] is reported as “did not show sEH-inhibition”. The “solubility in deionised water relative to Comp-06” value in “Aqueous solubility” (37° C.) was roughly 10 ×. Moreover, the solubility at 24 h in the data set “Aqueous solubility” (read-out: Average solubility at 37° C.) came out at 68 µg/mL (≈ 191 µM); in the data set “Aqueous solubility” (read-out: Highest solubility value at 37° C.), 75 µg/mL (≈ 210 µM); in “Aqueous solubility” (read-out: Lowest solubility value at 37° C.), 59 µg/mL (≈ 166 µM). Besides, the “reduction of cellular necrosis (LDH-release)” value in data set [3] (30 nM) was found to be 43%; in data set [3] (10 μM), 45%. For the same compound, the “amelioration of loss of cell number” value is 35% in data set [3] (30 nM) and 44% in data set [3] (10 μM). Further, the “protection against OGD-induced damage, in words” value in data set [3] (18 h OGD, 24 h reoxygenation) was “partially protected against OGD-induced damage”. The “reduction of OGD-induced apoptosis” value in data set [3] (caspase 3/7 activation, concentration not given) came out at 43%. Moreover, the “reduction of OGD-induced necrosis” value in data set [3] (concentration not given) stood at 29%.
